The results in this text go back to US20250099420A1, “SMALL MOLECULE MODULATORS OF GPR139 COMPLEX” (University of Florida Research Foundation, Incorporated, priority 2022, published 2025).

The target in data set [1] is T1, GPR139 (Homo sapiens, UniProt Q6DWJ6).
T1 sequence (Q6DWJ6 1-353): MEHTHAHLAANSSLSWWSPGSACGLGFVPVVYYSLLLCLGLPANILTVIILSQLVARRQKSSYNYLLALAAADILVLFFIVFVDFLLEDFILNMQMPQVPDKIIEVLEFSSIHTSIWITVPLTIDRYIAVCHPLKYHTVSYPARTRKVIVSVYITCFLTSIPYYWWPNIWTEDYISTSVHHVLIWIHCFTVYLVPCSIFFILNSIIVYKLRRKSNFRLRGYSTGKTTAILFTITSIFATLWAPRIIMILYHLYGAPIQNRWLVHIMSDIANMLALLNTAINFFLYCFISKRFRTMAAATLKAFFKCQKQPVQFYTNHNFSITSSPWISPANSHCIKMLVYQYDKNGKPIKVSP
The data set can be described thus: GPR139 Agonist titration / agonist counterscreen assay (calcium detection, HEK-GPR139 cells). The following applies: GPR139 Agonist Activity; for EC50: read-out: EC50; for Averaged Max % Response (±St. Dev.): activity relative to known control. On the set-up: expressed in transfected cells; host or cells: HEK Aequorin cells, Maxcyte transient transfection. The class given is cell-based. As to the method:
GPR activity was assessed using a calcium detection assay. […] Negative control samples were treated with DMSO. […] Intracellular calcium was measured using Calcium 5.
Background: A counterscreen serves to expose hits that act by an unwanted route or on another target.

The subject of data set [2] is parental HEK cells. Description: HEK parental Agonist Counterscreen Assay (non-transfected cells). The data set is classed as cell-based. The following applies: for Averaged Max % Response (±St. Dev.): activity relative to known control. An excerpt: The high control for the agonist counterscreen was Forskolin not acetylcholine.
Setting [3] is: Homo sapiens, HEK293, HEK Agonist Activity section of Table 4 (parental HEK counterscreen).
Where [4] appears, read: values printed in E-notation without unit.
The mark [5] stands for this setting: HEK Agonist Activity, parental non-transfected HEK cells.

Where two headings read alike, the source gives them in different places.

For orientation: EC50 means the concentration needed to bring the measured effect to its halfway point.

Regarding `Cc1ccccc1-c1nnc(CN2CCc3ccccc3C2)o1` [SR-01000162178], in data set [1], the “Efficiency Ligand” value is 0.40, the “Hill Slope” value stood at 1.13, the “Lipophilic Efficiency (logD)” value is recorded as 3.44 and the “Lipophilic Efficiency (logP)” value is listed as 3.29. Further, the “Averaged Max % Response (±St. Dev.)” value in data set [1] was determined as 112.85 ± 32.26%. For the same molecule, the EC50 in data set [1] (HEK-GPR139 cells) was found to be 272 nM. In addition, in data set [2] (HEK Agonist Activity section), the “Lipophilic Efficiency (logD)” value was 1.73, the “Lipophilic Efficiency (logP)” value turned out to be 1.58 and the “Averaged Max % Response (±St. Dev.)” value amounted to 25.44 ± 6.84%. Also, the EC50 in data set [2] (setting [3]) is greater than 14100 nM.
As to `Cn1c(CC(=O)NNC(=O)CSc2ccc3ccccc3c2)nc2ccccc21` [SR-01000068729], the figures for the “Averaged Max % Response (±St. Dev.)” value in data set [1] and in data set [2] (HEK Agonist Activity) were 126.00 ± 7.94% and −3.41 ± 1.08%, respectively. In addition, the results for the “Lipophilic Efficiency (logD)” value in data set [1] (based on logD) and in data set [2] (HEK Agonist Activity) were 6.03 and 1.73, respectively. The “Lipophilic Efficiency (logP)” value came to 6.03 in data set [1] (based on logP) and 1.73 in data set [2] (HEK Agonist Activity). The “Efficiency Ligand” value in data set [1] (ligand efficiency) came out at 0.44. Besides, the EC50 was greater than 0.779 nM in data set [1] (setting [4]) and greater than 15300 nM in data set [2] (setting [5]).
`COc1ccc(CSc2nnc(-c3cccnc3)n2N)cc1` [SR-01000284323]: in data set [1], the “Efficiency Ligand” value stood at 0.41, the “Hill Slope” value is 0.57, the “Lipophilic Efficiency (logD)” value is 4.90 and the “Lipophilic Efficiency (logP)” value was determined as 4.90. The “Averaged Max % Response (±St. Dev.)” value in data set [1] amounted to 94.97 ± 7.83%. The concentration giving a half-maximal response (EC50) in data set [1] (HEK-GPR139 cells) was found to be 386 nM. Besides, in data set [2] (HEK Agonist Activity section), the “Lipophilic Efficiency (logD)” value is listed as 3.34, the “Lipophilic Efficiency (logP)” value came out at 3.34 and the “Averaged Max % Response (±St. Dev.)” value amounted to 3.28 ± 6.64%. Also, in data set [2] (HEK Agonist Activity section of Table 4 (parental HEK counterscreen)), the EC50 was greater than 14100 nM.
Turning to `O=C(Nc1ccc(-c2c[nH]cn2)cc1)C1COc2ccc(F)cc2C1` (centres unmarked) [SR-00000004710], in data set [1], the “Efficiency Ligand” value amounted to 0.35, the “Hill Slope” value is on record as 0.90, the “Lipophilic Efficiency (logD)” value was 3.12 and the “Lipophilic Efficiency (logP)” value was 3.11. For the same molecule, in data set [1], the “Averaged Max % Response (±St. Dev.)” value is recorded as 89.55 ± 3.66%. In addition, in data set [1] (HEK-GPR139 cells), the concentration giving a half-maximal response (EC50) stood at 477 nM. Also, in data set [2] (HEK Agonist Activity section), the “Lipophilic Efficiency (logD)” value is given as 1.65, the “Lipophilic Efficiency (logP)” value stood at 1.64 and the “Averaged Max % Response (±St. Dev.)” value is listed as −8.04 ± 14.30%. In data set [2] (setting [3]), the EC50 was greater than 14100 nM.
Turning to `Cc1ccc(CNC(=O)COC(=O)c2ccc(Br)o2)cc1` [SR-01000042100], the “Averaged Max % Response (±St. Dev.)” value in data set [1] worked out at 100.32 ± 4.53%; in data set [2] (HEK Agonist Activity section), 17.67 ± 3.11%. The “Lipophilic Efficiency (logD)” value in data set [1] (based on logD) was found to be 4.12; in data set [2] (HEK Agonist Activity section), 2.20. Further, the “Lipophilic Efficiency (logP)” value came out at 4.12 in data set [1] (based on logP) and 2.20 in data set [2] (HEK Agonist Activity section). In data set [1] (fitted dose-response curve), the “Hill Slope” value is 0.79. The “Efficiency Ligand” value in data set [1] (ligand efficiency) came out at 0.45. Also, in data set [2] (setting [3]), the EC50 is greater than 14400 nM.
As for `O=C(CC(C(=O)N1CCc2ccccc21)n1ccnc1)NCC1COc2ccccc2O1` (centres unmarked) [SR-01000144615], the figures for the “Averaged Max % Response (±St. Dev.)” value in data set [1] and in data set [2] (HEK Agonist Activity) were 108.00 ± 3.42% and −9.40 ± 4.48%, respectively. Also, the “Lipophilic Efficiency (logD)” value in data set [1] (based on logD) turned out to be 6.43; in data set [2] (HEK Agonist Activity) it was 3.29. Also, the “Lipophilic Efficiency (logP)” value in data set [1] (based on logP) was 6.38; in data set [2] (HEK Agonist Activity), 3.24. The “Hill Slope” value in data set [1] (fitted dose-response curve) was 4.63. In data set [1] (ligand efficiency), the “Efficiency Ligand” value stood at 0.35. Further, the EC50 in data set [1] (setting [4]) is 10.3 nM; in data set [2] (Homo sapiens, HEK293, HEK Agonist Activity, parental non-transfected HEK cells) it was greater than 14100 nM.
As for `CC(C)CCNC(=O)C1C2C=CC3(CN(Cc4ccccc4Cl)C(=O)C13)O2` (centres unmarked) [SR-01000104567], the “Averaged Max % Response (±St. Dev.)” value came out at 119.91 ± 2.22% in data set [1] and 8.02 ± 5.87% in data set [2] (HEK Agonist Activity). Besides, the “Lipophilic Efficiency (logD)” value in data set [1] (based on logD) is recorded as 5.19; in data set [2] (HEK Agonist Activity), 2.34. Further, the “Lipophilic Efficiency (logP)” value in data set [1] (based on logP) stood at 5.19; in data set [2] (HEK Agonist Activity), 2.34. Also, the “Hill Slope” value in data set [1] (fitted dose-response curve) is reported as 0.32. For the same molecule, in data set [1] (ligand efficiency), the “Efficiency Ligand” value is on record as 0.40. In addition, the EC50 is 19.8 nM in data set [1] (setting [4]) and greater than 14100 nM in data set [2] (setting [5]).
